Legend:
EP2 [1] = molecular target: T1, EP2 (Homo sapiens, UniProt P43116); experiment: EP2 flipr; assay type: cell-based
Text: (§1) U.S. patent application Ser. No. 11/553,143, filed on Oct. 26, 2006, incorporated by reference herein in its entirety, describes the methods used to obtain the in vitro data in the table below.

EP2 [2] = molecular target: T1, EP2; experiment: EP2 binding Ki
Text: as §1

hEP3A = molecular target: T2, hEP3A (Homo sapiens, UniProt P43115); experiment: Other receptors hEP3A; assay type: cell-based
T2 sequence (P43115 1-390): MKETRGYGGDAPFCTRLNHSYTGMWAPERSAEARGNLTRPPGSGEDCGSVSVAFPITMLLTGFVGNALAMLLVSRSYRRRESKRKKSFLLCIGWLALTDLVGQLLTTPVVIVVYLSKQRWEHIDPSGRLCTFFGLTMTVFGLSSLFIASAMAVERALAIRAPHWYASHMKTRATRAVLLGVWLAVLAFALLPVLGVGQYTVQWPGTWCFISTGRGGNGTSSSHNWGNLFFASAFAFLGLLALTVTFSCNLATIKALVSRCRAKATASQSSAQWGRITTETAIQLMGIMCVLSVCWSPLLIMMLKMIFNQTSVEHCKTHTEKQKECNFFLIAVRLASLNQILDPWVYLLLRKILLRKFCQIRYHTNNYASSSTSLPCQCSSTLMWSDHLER
Text: as §1

EP2 [3] = molecular target: T1, EP2; experiment: EP2 cAMP; assay type: cell-based
Text: as §1

EP4 [4] = molecular target: T3, EP4 (Homo sapiens, UniProt P35408); experiment: EP4 binding Ki
T3 sequence (P35408 whole entry): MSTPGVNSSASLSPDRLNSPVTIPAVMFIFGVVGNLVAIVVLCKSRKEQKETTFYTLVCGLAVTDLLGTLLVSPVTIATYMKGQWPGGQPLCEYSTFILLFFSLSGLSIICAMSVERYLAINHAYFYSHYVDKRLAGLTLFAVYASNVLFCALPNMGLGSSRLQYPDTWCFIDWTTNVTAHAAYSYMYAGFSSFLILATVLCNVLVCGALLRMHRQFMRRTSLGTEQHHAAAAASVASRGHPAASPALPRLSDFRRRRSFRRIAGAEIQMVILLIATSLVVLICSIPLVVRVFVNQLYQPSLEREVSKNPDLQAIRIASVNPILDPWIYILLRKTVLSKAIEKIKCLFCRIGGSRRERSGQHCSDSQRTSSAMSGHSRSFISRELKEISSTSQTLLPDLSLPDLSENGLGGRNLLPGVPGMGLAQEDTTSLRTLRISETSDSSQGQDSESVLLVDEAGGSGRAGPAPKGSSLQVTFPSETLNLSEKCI
Text: as §1

EP4 [5] = molecular target: T3, EP4; experiment: EP4 flipr; assay type: cell-based
Text: as §1

T1 sequence (P43116 whole entry): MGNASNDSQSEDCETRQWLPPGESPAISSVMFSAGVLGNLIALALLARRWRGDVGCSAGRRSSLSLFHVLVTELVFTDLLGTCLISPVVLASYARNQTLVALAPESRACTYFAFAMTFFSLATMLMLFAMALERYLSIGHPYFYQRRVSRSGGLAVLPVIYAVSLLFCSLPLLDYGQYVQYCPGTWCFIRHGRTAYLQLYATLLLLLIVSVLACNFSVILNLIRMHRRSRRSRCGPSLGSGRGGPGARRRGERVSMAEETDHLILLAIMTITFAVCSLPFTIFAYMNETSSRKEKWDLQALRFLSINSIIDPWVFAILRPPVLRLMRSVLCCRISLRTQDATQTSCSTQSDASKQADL

Row | SMILES | EC50 (EP2 [1]) | Ki (EP2 [2]) | EC50 (hEP3A) | EC50 (EP2 [3]) | Ki (EP4 [4]) | EC50 (EP4 [5])
1 | O=C(O)c1ccc(CCC[C@H]2C(C(F)(F)F)C[C@@H](O)[C@@H]2C#Cc2ccccc2)s1 (single isomer, unassigned) [Example 23] | 79 nM | 30 nM | 7100 nM | 3 nM | – | –
2 | CCc1cccc(C#C[C@@H]2[C@@H](CCCc3ccc(C(=O)O)s3)[C@H](Cl)C[C@H]2O)c1 [Example 26, 5-(3-((1R,2S,3R,5R)-5-chloro-2-((3-ethylphenyl)ethynyl)-3-hydroxycyclopentyl)propyl)thiophene-2-carboxylic acid] | 56 nM | 0.3 nM | – | 0.08 nM | 316 nM | 616 nM
3 | O=C(O)c1ccc(CCC[C@@H]2[C@@H](C#Cc3ccccc3)[C@H](O)C[C@H]2C(F)(F)F)s1 (single isomer, unassigned) [Example 24] | 107 nM | 41 nM | – | 4 nM | – | –
4 | O=C(O)c1ccc(CCC[C@@H]2[C@@H](/C=C/c3cncc(Cl)c3)[C@H](O)C[C@H]2Cl)s1 [Example 3, 5-(3-((1R,2R,3R,5R)-5-chloro-2-((E)-2-(5-chloropyridin-3-yl)vinyl)-3-hydroxycyclopentyl)propyl)-thiophene-2-carboxylic acid] | 101 nM | 10 nM | – | 1.3 nM | 3500 nM | 15900 nM
5 | O=C(O)c1ccc(CCC[C@@H]2[C@@H](C#Cc3cc(Cl)cc(Cl)c3)[C@H](O)C[C@H]2Cl)s1 [Example 25, 5-(3-((1R,2S,3R,5R)-5-chloro-2-((3,5-dichlorophenyl)ethynyl)-3-hydroxycyclopentyl)propyl)thiophene-2-carboxylic acid] | 133 nM | < 0.08 nM | – | 0.09 nM | 466 nM | 1910 nM
6 | O=C(O)c1ccc(CCC[C@@H]2[C@@H](C#Cc3ccccn3)[C@H](O)C[C@H]2Cl)s1 [Example 30, 5-(3-((1R,2S,3R,5R)-5-chloro-3-hydroxy-2-(pyridin-2-ylethynyl)cyclopentyl)propyl)thiophene-2-carboxylic acid] | 3 nM | 11 nM | – | 0.2 nM | 2140 nM | > 10000 nM
7 | O=C(O)c1ccc(CCC[C@@H]2C(=O)C[C@@H](O)[C@@H]2C#Cc2ccccc2)s1 [Example 18, 5-(3-((1S,2S,3R)-3-hydroxy-5-oxo-2-(phenylethynyl)cyclopentyl)propyl)thiophene-2-carboxylic acid] | 22 nM | 30 nM | – | 0.6 nM | 1790 nM | 3220 nM
8 | Cc1cc(C)cc(/C=C/[C@@H]2[C@@H](CCCc3ccc(C(=O)O)s3)[C@H](Cl)C[C@H]2O)c1 [Example 8, 5-(3-((1R,2R,3R,5R)-5-chloro-2-(3,5-dimethylstyryl)-3-hydroxycyclopentyl)propyl)thiophene-2-carboxylic acid] | 328 nM | 8 nM | – | 1.4 nM | 86 nM | 10000 nM
9 | O=C(O)c1csc(SCC[C@@H]2[C@@H](/C=C/c3cc(Cl)cc(Cl)c3)[C@H](O)C[C@H]2Cl)n1 [Example 14, 2-(2-((1R,2R,3R,5R)-5-chloro-2-(3,5-dichlorostyryl)-3-hydroxycyclopentyl)ethylthio)thiazole-4-carboxylic acid] | 7 nM | 1.2 nM | 3880 nM | 0.04 nM | 616 nM | 3460 nM

Further compounds by falling Ki (EP2 [2]), results first:

Row | EC50 (EP2 [1]) | Ki (EP2 [2]) | EC50 (hEP3A) | EC50 (EP2 [3]) | Ki (EP4 [4]) | EC50 (EP4 [5]) | SMILES
10 | 306 nM | 79 nM | – | 7 nM | 8670 nM | > 10000 nM | O=C(O)c1ccc(CCC[C@@H]2[C@@H](C#Cc3ccncc3)[C@H](O)C[C@H]2Cl)s1 [Example 32, 5-(3-((1R,2S,3R,5R)-5-chloro-3-hydroxy-2-(pyridin-4-ylethynyl)cyclopentyl)propyl)thiophene-2-carboxylic acid]
11 | – | 64 nM | – | 3.3 nM | 1870 nM | 5910 nM | O=C(O)c1ccc(CCC[C@@H]2[C@@H](C#Cc3ccsc3)[C@H](O)C[C@H]2Cl)s1 [Example 29, 5-(3-((1R,2S,3R,5R)-5-chloro-3-hydroxy-2-(thiophen-3-ylethynyl)cyclopentyl)propyl)thiophene-2-carboxylic acid]
12 | 2180 nM | 24 nM | – | 12 nM | 239 nM | 6460 nM | C/C=C/c1cc(Cl)cc(/C=C\[C@@H]2[C@@H](CCCc3ccc(C(=O)O)s3)[C@H](Cl)C[C@H]2O)c1 [Example 11, 5-(3-((1R,2R,3R,5R)-5-chloro-2-((Z)-3-chloro-5-((E)-prop-1-enyl)styryl)-3-hydroxycyclopentyl)propyl)thiophene-2-carboxylic acid]
13 | 235 nM | 13 nM | > 10000 nM | 0.18 nM | 587 nM | 21200 nM | N#C[C@@H]1C[C@@H](O)[C@H](C#Cc2ccccc2)[C@H]1CCCc1ccc(C(=O)O)s1 [Example 22, 5-(3-((1S,2S,3R,5R)-5-cyano-3-hydroxy-2-(phenylethynyl)cyclopentyl)propyl)thiophene-2-carboxylic acid]
14 | 9 nM | 5 nM | 11000 nM | 0.05 nM | 700 nM | 33800 nM | O=C(O)c1ccc(CCC[C@H]2C(=O)C[C@@H](O)[C@@H]2C#Cc2ccccc2)s1 [Example 17, 5-(3-((1R,2S,3R)-3-hydroxy-5-oxo-2-(phenylethynyl)cyclopentyl)propyl)thiophene-2-carboxylic acid]
15 | 2 nM | 4 nM | – | 0.3 nM | 1440 nM | 4200 nM | O=C(O)c1ccc(CCC[C@@H]2[C@@H](C#Cc3cccnc3)[C@H](O)C[C@H]2Cl)s1 [Example 31, 5-(3-((1R,2S,3R,5R)-5-chloro-3-hydroxy-2-(pyridin-3-ylethynyl)cyclopentyl)propyl)thiophene-2-carboxylic acid]
16 | 349 nM | 4 nM | > 10000 nM | 0.23 nM | 1020 nM | 26600 nM | O=C(O)c1ccc(CCC[C@@H]2[C@@H](C#Cc3ccccc3)[C@H](O)C[C@H]2F)s1 [Example 19, 5-(3-((1R,2S,3R,5R)-5-fluoro-3-hydroxy-2-(phenylethynyl)cyclopentyl)propyl)thiophene-2-carboxylic acid]
17 | 44 nM | 2.3 nM | – | 0.09 nM | 162 nM | 15900 nM | O=C(O)c1ccc(CCC[C@@H]2[C@@H](/C=C/c3cc(Cl)nc(Cl)c3)[C@H](O)C[C@H]2Cl)s1 [Example 4, 5-(3-((1R,2R,3R,5R)-5-chloro-2-((E)-2-(2,6-dichloropyridin-4-yl)vinyl)-3-hydroxycyclopentyl)propyl)-thiophene-2-carboxylic acid]
18 | – | 2 nM | – | 0.22 nM | 1520 nM | 8990 nM | O=C(O)c1ccc(CCC[C@@H]2[C@@H](C#Cc3cccc(CCCO)c3)[C@H](O)C[C@H]2Cl)s1 [Example 33, 5-(3-((1R,2S,3R,5R)-5-chloro-3-hydroxy-2-((3-(3-hydroxypropyl)phenyl)ethynyl)cyclopentyl)propyl)thiophene-2-carboxylic acid]
19 | > 10000 nM | 2 nM | – | 0.4 nM | 193 nM | > 10000 nM | CCCc1cc(/C=C/[C@@H]2[C@@H](CCCc3ccc(C(=O)O)s3)[C@H](Cl)C[C@H]2O)ccn1 [Example 13, 5-(3-((1R,2R,3R,5R)-5-chloro-3-hydroxy-2-((E)-2-(2-propylpyridin-4-yl)vinyl)cyclopentyl)propyl)thiophene-2-113 carboxylic acid]
20 | 1640 nM | 1.4 nM | – | 0.1 nM | 90 nM | > 10000 nM | C/C=C/c1cc(Cl)cc(/C=C/[C@@H]2[C@@H](CCCc3ccc(C(=O)O)s3)[C@H](Cl)C[C@H]2O)c1 [Example 10, 5-(3-((1R,2R,3R,5R)-5-chloro-2-((E)-3-chloro-5-((E)-prop-1-enyl)styryl)-3-hydroxycyclopentyl)propyl)thiophene-2-carboxylic acid]
21 | 19 nM | 1 nM | – | 0.03 nM | 436 nM | 11000 nM | C=CCCc1cccc(C#C[C@@H]2[C@@H](CCCc3ccc(C(=O)O)s3)[C@H](Cl)C[C@H]2O)c1 [Example 27, 5-(3-((1R,2S,3R,5R)-2-((3-(but-3-enyl)phenyl)ethynyl)-5-chloro-3-hydroxycyclopentyl)propyl)thiophene-2-carboxylic acid]
22 | 72 nM | 0.7 nM | 5780 nM | 0.03 nM | 288 nM | 17300 nM | C=CCCc1cccc(/C=C/[C@@H]2[C@@H](CCCc3ccc(C(=O)O)s3)[C@H](Cl)C[C@H]2O)c1 [Example 9, 5-(3-((1R,2R,3R,5R)-2-(3-(but-3-enyl)styryl)-5-chloro-3-hydroxycyclopentyl)propyl)thiophene-2-carboxylic acid]

Source: patent US9765065B2, “Therapeutic substituted cyclopentanes” (ALLERGAN, INC., priority 2007, dated 2017)
